From patent publication EP3064205A1, “Therapeutic use of isomeric forms of 2-(4-chlorophenyl)quinolin-4-yl)(piperidin-2-yl)methanol” (Glionova AB, priority 2015, dated 2016)

Legend:
KPC cells = assay: ATP viability assay (CellTiter-Glo), 3D culture, automatic drug screen; type: cell-based, mouse; details: 72h
Procedure: Panc-1, HPAF II, KPC pancreatic adenocarcinoma cell lines were trypsin-treated and counted using the Casy Cell Counter according to the manufacturer's recommendations (GmbH). Subsequently, they were seeded onto round bottom non-tissue culture treated 96 well-plates (Falcon, BD NJ, USA) at a concentration of 2500 cells/well in 100 µl DMEM-F12 or phenol red-free DMEM-F12 medium, containing 10% FCS and supplemented with 20% methyl cellulose stock solution. For preparation of methylcellulose stock solution, 6 grams of methylcellulose powder (M0512, Sigma-Aldrich) was autoclaved in a 500 ml flask containing a magnetic stirrer (the methylcellulose powder is resistant to this procedure). The autoclaved methylcellulose was dissolved in preheated 250 ml basal medium (60°C) for 20 min (using the magnetic stirrer). Thereafter, 250 ml medium (room temperature) containing double amount of FCS (20%) was added to a final volume of 500 ml and the whole solution mixed overnight at 4°C. The final stock solution was aliquoted and cleared by centrifugation (5000g, 2 h, room temperature). […]
In order to confirm the results presented in figure 1, S1 was further tested in 2 different cell lines in 3D culture format, using an automatic drug screening assay. The effect of Vacquinol-1 RS (S1) on cell viability was measured after 72h using the CellTiter-Glo assay (Promega) adapted for 3D culture.

Panc-1 cells = assay: APH cell viability assay, 3D culture; type: cell-based, human
Source text: The following well-characterized human pancreatic ductal adenocarcinoma cell lines (ATCC) were used: HPAF II, BxPC-3, MIA-PaCa2 and Panc-1. These cell lines were generated from patient-derived tumors and are widely used model system to study pancreatic cancer (HPAF II: Kim YW, et al. Pancreas 4: 353-362, 1989; BxPC-3: Tan MH, et al. Cancer Invest. 4: 15-23, 1986; MIA-PaCa2: Yunis AA, et al. Int. J. Cancer 19: 128-135, 1977; Pacn-1: Lieber M, et al. Int. J. Cancer 15: 741-747, 1975).
Panc-1, HPAF II, KPC pancreatic adenocarcinoma cell lines were trypsin-treated and counted using the Casy Cell Counter according to the manufacturer's recommendations (GmbH). Subsequently, they were seeded onto round bottom non-tissue culture treated 96 well-plates (Falcon, BD NJ, USA) at a concentration of 2500 cells/well in 100 µl DMEM-F12 or phenol red-free DMEM-F12 medium, containing 10% FCS and supplemented with 20% methyl cellulose stock solution. For preparation of methylcellulose stock solution, 6 grams of methylcellulose powder (M0512, Sigma-Aldrich) was autoclaved in a 500 ml flask containing a magnetic stirrer (the methylcellulose powder is resistant to this procedure). The autoclaved methylcellulose was dissolved in preheated 250 ml basal medium (60°C) for 20 min (using the magnetic stirrer). Thereafter, 250 ml medium (room temperature) containing double amount of FCS (20%) was added to a final volume of 500 ml and the whole solution mixed overnight at 4°C. The final stock solution was aliquoted and cleared by centrifugation (5000g, 2 h, room temperature). Only the clear highly viscous supernatant was used for the spheroid assay (about 90-95% of the stock solution). For spheroid generation, 20% of the stock solution and 80% culture medium corresponding to final 0.24% methylcellulose was used. Spheroids were grown under standard culture conditions (5% CO2, at 37°C).
For 2D culture, cells were seeded on flat bottom 96 well plates (Costar) at a concentration of 2500 cells/well in 100 µl phenol red-free RPMI-F12 medium containing 10% FCS. For 3D culture, cells were seeded according to the description for spheroid preparation in phenol-free medium. […] The viability rate was calculated as a percentage of the untreated cells. All data were expressed as the mean ± SD of at least 8 replicates. To confirm the reliability of the APH assay on 2D culture, cell viability was measured using CellTiter-Glo assay (Promega).
The APH assay, which measures the activity of acidic phosphatase in the cells, was optimized for 3D cultures as follows. […] Absorbance at 405nm was measured within 10 minutes using a FluoStar OPTIMA plate reader (BMG Labtech). Viability rate was calculated as per cent of CTR untreated cells. All data are expressed as the mean ± SD of at least 8 replicates.

In the case of `O[C@H](c1cc(-c2ccc(Cl)cc2)nc2ccccc12)[C@@H]1CCCCN1` [S1, (R)-(2-(4-chlorophenyl)quinolin-4-yl)((S)-piperidin-2-yl)methanol], the reduction in viability (KPC cells; 10 µM) is reported as ~50%, the “viability compared to control” value (KPC cells; 30-15 µM) is reported as “complete loss of viability” and the vacuole formation (Panc-1 cells; Panc-1, 30 µM (data not shown)) is reported as “vacuoles were formed”. For the same compound, the “effect on cell viability” value (Panc-1 cells; Panc-1, 3D culture, 30 µM, 24h) was “did not affect cells”, the “decrease in cell viability” value (Panc-1 cells; Panc-1, 3D culture, 30 µM, 48h) was 55% and the “decrease in cell viability” value (Panc-1 cells; Panc-1, 3D culture, 30 µM, 72h) was 64%.
